The results in this text go back to US12281057B2 (VERTEX PHARMACEUTICALS INCORPORATED, priority 2017, dated 2025).

One assay deals with T1, truncated form of human NaV 1.8 with full channel activity (Homo sapiens, UniProt Q9Y5Y9). Description: E-VIPR Assay Method A for detecting and measuring Nav inhibition (HEK cells, membrane potential FRET dyes, electrical stimulation). It counts as cell-based. To be noted: HEK cells expressing human NaV 1.8, HS (human serum) in compound loading buffer, 11 point dose response, top dose 3 μM, Table 20, read-out: Nav 1.8 MedChem Optical Assay EVIPR Assay Method A HS IC50. In a few lines: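 Read-out: FRET membrane-potential dye ratio (460/580 nm) before and during E-VIPR field stimulation at 10 Hz for 10 s, expressed as % activity between DMSO and positive controls. Cells: HEK with truncated human NaV1.8; compound preincubated 30 min at room temp, final DMSO 0.625%.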
T1 sequence (Q9Y5Y9 126-1722 limits assumed): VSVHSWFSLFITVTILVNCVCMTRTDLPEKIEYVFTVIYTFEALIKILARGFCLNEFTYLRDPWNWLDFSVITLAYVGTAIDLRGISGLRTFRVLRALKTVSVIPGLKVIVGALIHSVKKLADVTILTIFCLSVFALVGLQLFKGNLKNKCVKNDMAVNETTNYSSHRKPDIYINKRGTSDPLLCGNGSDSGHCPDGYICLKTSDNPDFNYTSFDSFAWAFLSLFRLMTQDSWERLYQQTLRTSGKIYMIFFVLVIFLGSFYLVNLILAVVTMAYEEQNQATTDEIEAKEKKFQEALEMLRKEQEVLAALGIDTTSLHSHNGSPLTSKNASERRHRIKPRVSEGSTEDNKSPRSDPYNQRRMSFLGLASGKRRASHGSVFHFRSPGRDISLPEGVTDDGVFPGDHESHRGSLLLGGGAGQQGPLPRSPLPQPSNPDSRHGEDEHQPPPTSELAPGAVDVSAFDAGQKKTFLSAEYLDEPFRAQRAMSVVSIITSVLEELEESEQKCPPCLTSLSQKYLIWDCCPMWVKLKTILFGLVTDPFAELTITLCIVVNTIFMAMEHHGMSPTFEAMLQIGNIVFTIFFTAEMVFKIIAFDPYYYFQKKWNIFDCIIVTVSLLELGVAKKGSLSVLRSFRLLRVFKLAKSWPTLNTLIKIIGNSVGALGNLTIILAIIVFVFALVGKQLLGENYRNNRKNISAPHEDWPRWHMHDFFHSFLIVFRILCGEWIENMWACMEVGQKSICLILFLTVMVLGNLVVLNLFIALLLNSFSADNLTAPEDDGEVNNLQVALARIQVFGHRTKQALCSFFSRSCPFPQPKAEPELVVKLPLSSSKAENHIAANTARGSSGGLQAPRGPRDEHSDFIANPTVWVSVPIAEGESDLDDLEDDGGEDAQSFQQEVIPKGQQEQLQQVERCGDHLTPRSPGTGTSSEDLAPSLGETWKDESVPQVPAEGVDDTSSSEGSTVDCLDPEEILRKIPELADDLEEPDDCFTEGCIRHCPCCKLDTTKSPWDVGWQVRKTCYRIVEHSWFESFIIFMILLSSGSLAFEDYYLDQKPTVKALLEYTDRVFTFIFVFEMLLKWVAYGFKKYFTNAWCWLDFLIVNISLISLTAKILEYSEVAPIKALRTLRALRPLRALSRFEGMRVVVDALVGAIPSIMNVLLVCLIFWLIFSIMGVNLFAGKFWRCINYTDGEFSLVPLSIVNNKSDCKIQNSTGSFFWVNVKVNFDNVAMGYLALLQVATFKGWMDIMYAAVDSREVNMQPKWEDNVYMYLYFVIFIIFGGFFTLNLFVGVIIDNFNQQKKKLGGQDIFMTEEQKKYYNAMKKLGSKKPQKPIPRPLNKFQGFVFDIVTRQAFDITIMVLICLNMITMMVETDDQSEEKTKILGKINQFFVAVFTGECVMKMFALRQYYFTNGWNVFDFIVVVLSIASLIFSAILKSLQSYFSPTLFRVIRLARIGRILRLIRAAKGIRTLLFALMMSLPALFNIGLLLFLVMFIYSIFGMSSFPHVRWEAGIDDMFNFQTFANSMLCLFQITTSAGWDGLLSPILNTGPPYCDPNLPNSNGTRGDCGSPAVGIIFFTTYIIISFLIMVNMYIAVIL
In the case of `[2H]C([2H])([2H])Oc1cc(OC(F)(F)F)ccc1Oc1ccc(C(F)(F)F)c(F)c1C(=O)Nc1ccnc(C(N)=O)c1` [Compound 6, 4-[[2-fluoro-6-[2-(trideuteriomethoxy)-4-(trifluoromethoxy)phenoxy]-3-(trifluoromethyl)benzoyl]amino]pyridine-2-carboxamide], the 50% inhibitory concentration (IC50) turned out to be 3 nM.

The assay is the same for the next values; noted with them: HEK cells expressing human NaV 1.8, HS (human serum) in compound loading buffer, 11 point dose response, top dose 3 μM, Table 20A, read-out: Nav 1.8 MedChem Optical Assay EVIPR Assay Method A HS IC50.
Consider `NC(=O)c1cc(NC(=O)c2c(Oc3ccc(OC(F)(F)F)cc3)cnc(C(F)(F)F)c2F)ccn1` [Compound 61, N-(2-Carbamoyl-4-pyridyl)-3-fluoro-5-[4-(trifluoromethoxy)phenoxy]-2-(trifluoromethyl)pyridine-4-carboxamide], for which the 50% inhibitory concentration (IC50) was 38 nM.

As for `NC(=O)c1cc(NC(=O)c2cc(OC(F)(F)F)ccc2Oc2ccc(OC(F)(F)F)cc2)ccn1` [Compound 156, 4-[[5-(Trifluoromethoxy)-2-[4-(trifluoromethoxy)phenoxy]benzoyl]amino]pyridine-2-carboxamide], the half-inhibitory concentration (IC50) came to 560 nM.

With `COc1cc(OC(F)(F)F)ccc1Oc1cc(Cl)c(C)c(F)c1C(=O)Nc1ccnc(C(N)=O)c1` [Compound 201, 4-[[4-Chloro-2-fluoro-6-[2-methoxy-4-(trifluoromethoxy)phenoxy]-3-methyl-benzoyl]amino]pyridine-2-carboxamide], the IC50 was determined as 1 nM.

As to `[2H]C([2H])([2H])Oc1c(Oc2ccc(C(F)(F)F)c(F)c2C(=O)Nc2ccc(C(N)=O)nc2)ccc(OC(F)(F)F)c1F` [Compound 221, 5-[[2-Fluoro-6-[3-fluoro-2-(trideuteriomethoxy)-4-(trifluoromethoxy)phenoxy]-3-(trifluoromethyl)benzoyl]amino]pyridine-2-carboxamide], the IC50 is 14 nM.

`COc1cc(OC(F)(F)F)ccc1Oc1cnc(C2CC2)c(F)c1C(=O)Nc1ccc(F)c(C(N)=O)c1` [Compound 46, N-(3-Carbamoyl-4-fluoro-phenyl)-2-cyclopropyl-3-fluoro-5-[2-methoxy-4-(trifluoromethoxy)phenoxy]pyridine-4-carboxamide]: the IC50 was 1200 nM.

Turning to `NC(=O)c1cc(NC(=O)c2c(Oc3ccc(OC(F)(F)F)nc3)ccc(C(F)(F)F)c2F)ccc1F` [Compound 69, N-(3-carbamoyl-4-fluoro-phenyl)-2-fluoro-6-[[6-(trifluoromethoxy)-3-pyridyl]oxy]-3-(trifluoromethyl)benzamide], the IC50 came out at 56 nM.

As to `COc1cc(OC(F)(F)F)ccc1Oc1ccc(F)c(Cl)c1C(=O)Nc1cc(C(N)=O)ncc1C` [Compound 129, 4-[[2-Chloro-3-fluoro-6-[2-methoxy-4-(trifluoromethoxy)phenoxy]benzoyl]amino]-5-methyl-pyridine-2-carboxamide], the half-inhibitory concentration (IC50) amounted to 69 nM.

As for `[2H]C([2H])([2H])Oc1c(Oc2cc(Cl)c(C(F)F)c(F)c2C(=O)Nc2ccnc(C(N)=O)c2)ccc(OC(F)(F)F)c1F` [Compound 234, 4-[[4-Chloro-3-(difluoromethyl)-2-fluoro-6-[3-fluoro-2-(trideuteriomethoxy)-4-(trifluoromethoxy)phenoxy]benzoyl]amino]pyridine-2-carboxamide], the IC50 came out at 4 nM.

On to `COc1c(Oc2ccc(C(F)(F)F)c(F)c2C(=O)Nc2ccc(F)c(C(N)=O)c2)ccc(OC(F)(F)F)c1F` [Compound 219, N-(3-Carbamoyl-4-fluoro-phenyl)-2-fluoro-6-[3-fluoro-2-methoxy-4-(trifluoromethoxy)phenoxy]-3-(trifluoromethyl)benzamide], for which the IC50 came out at 0.9 nM.

The target in a further assay is T1, truncated form of human NaV 1.8 with full channel activity. Description: E-VIPR Assay Method B for detecting and measuring Nav inhibition (HEK cells, membrane potential FRET dyes, electrical stimulation). To be noted: HEK cells expressing human NaV 1.8, Table 20B, read-out: Nav 1.8 MedChem Optical Assay EVIPR Assay Method B HS IC50. It counts as cell-based. From the text:
[formula] where X is the ratio response of the test compound. […] E-VIPR Assay Method B for Detecting and Measuring Nav Inhibition Properties Sodium ion channels are voltage-dependent proteins that can be activated by inducing membrane voltage changes by applying electric fields. The electrical stimulation instrument and methods of use, referred to as E-VIPR, are described in International Publication No. WO 2002/008748 A3 and C.-J. Huang et al. Characterization of voltage-gated sodium channel blockers by electrical stimulation and fluorescence detection of membrane potential, 24 Nature Biotech. 439-46 (2006), both of which are incorporated by reference in their entirety. The instrument comprises a microtiter plate handler, an optical system for exciting the coumarin dye while simultaneously recording the coumarin and oxonol emissions, a waveform generator, a current- or voltage-controlled amplifier, and parallel electrode pairs that are inserted into assay plate wells. Under integrated computer control, this instrument passes user-programmed electrical stimulus protocols to cells within the wells of the microtiter plate. […] Sigma #F4135), 1% NEAA (Non-Essential Amino Acids, Life Tech #11140), 1% HEPES (Life Tech #15630), 1% Pen-Strep (Penicillin-Streptomycin; […] Cells were expanded in vented cap flasks, with 95% humidity and 5% CO2. Reagents and Stock Solutions: • 100 mg/mL Pluronic F-127 (Sigma #P2443), in dry DMSO • Compound Plates: […] 5% KIR 2.1 Bacmam virus (produced in-house), prepared as described in Section 3.3 of J. A. Fornwald et al., Gene Expression in Mammalian Cells Using BacMam, a Modified Baculovirus System, 1350 Methods in Molecular Biology 95-116 (2016), the entire contents of which are incorporated by reference. • 5 mM DiSBAC6(3) (a voltage sensitive oxonol acceptor) (Aurora #00-100-010) in dry DMSO • 5 mM CC2-DMPE (a membrane-bound coumarin phospholipid FRET donor) (Aurora #00-100-008) in dry DMSO • 89 mM VABSC-1 in H2O. […] The solution was made by adding 10% Pluronic F127 stock equal to combined volumes of CC2-DMPE and DiSBAC6(3). The order of preparation was first mix Pluronic and CC2-DMPE, then add DiSBAC6(3), then while vortexing add Bath1/β-Cyclodextrin. […] Assay Protocol: […] Final DMSO concentration for all wells in the assay was 0.625% (0.75% DMSO was supplemented to the Compound Loading Buffer for a final DMSO concentration of 0.625%). 2) Hexyl Dye Solution was prepared. 3) Cell plates were prepared. On the day of the assay, the media was aspirated, and the cells were washed three times with 80 μL of Bath-1 buffer, maintaining 25 μL residual volume in each well. 4) 25 μL per well of Hexyl Dye Solution was dispensed into the cell plates. The cells were incubated for 20 minutes at room temp or ambient conditions in darkness. 5) 80 μL per well of Compound Loading Buffer was dispensed into compound plates. […] The mixture was incubated for 30 minutes at room temp/ambient conditions. […] A pre-stimulus recording was performed for 0.5 seconds to obtain the un-stimulated intensities baseline. The stimulatory waveform was followed by 0.5 seconds of post-stimulation recording to examine the relaxation to the resting state. Data Analysis: Data were analyzed and reported as normalized ratios of emission intensities measured in the 460 nm and 580 nm channels. The response as a function of time was reported as the ratios obtained using the following formula: [formula] The data were further reduced by calculating the initial (Ri) and final (Rf) ratios. These were the average ratio values during part or all of the pre-stimulation period and during sample points during the stimulation period. The fluorescence ratio (Rf/Ri) was then calculated and reported as a function of time. Control responses were obtained by performing assays in the presence of the positive control, and in the absence of pharmacological agents (DMSO vehicle negative control). Responses to the negative (N) and positive (P) controls were calculated as above. […]
Consider `COc1ccc(Oc2ccc(C(F)(F)F)cc2C(=O)Nc2cccc(C(N)=O)c2)c(C)c1` [Compound 280, N-(3-carbamoylphenyl)-2-(4-methoxy-2-methylphenoxy)-5-(trifluoromethyl)benzamide], for which the IC50 was determined as 42 nM.

In the case of `CC(C)(C)c1ccc(C(=O)Nc2cc(C(N)=O)ccn2)c(Oc2ccc(C(F)(F)F)nc2)c1` [Compound 262], the concentration for half-maximal inhibition (IC50) is greater than 25000 nM.

On to `COc1cc(F)ccc1Oc1cc(C(F)(F)C(F)(F)F)ccc1C(=O)Nc1cccc(C(N)=O)c1` [Compound 248, N-(3-carbamoylphenyl)-2-(4-fluoro-2-methoxyphenoxy)-4-(1,1,2,2,2-pentafluoroethyl)benzamide], for which the IC50 turned out to be 11 nM.

For `NC(=O)c1cccc(NC(=O)c2c(Oc3ccc(F)cc3Cl)cccc2C(F)(F)F)c1` [Compound 260, N-(3-carbamoylphenyl)-2-(2-chloro-4-fluorophenoxy)-6-(trifluoromethyl)benzamide], the half-maximal inhibitory concentration (IC50) came to 166 nM.

Turning to `COc1cc(F)ccc1Oc1cc(Cl)c(Cl)cc1C(=O)Nc1cccc(C(N)=O)c1` [Compound 270, N-(3-carbamoylphenyl)-4,5-dichloro-2-(4-fluoro-2-methoxy-phenoxy)benzamide], the IC50 came to 9 nM.

On to `COc1ccc(Oc2cc(Cl)c(Cl)cc2C(=O)Nc2cccc(C(N)=O)c2)c(F)c1` [Compound 273, N-(3-carbamoylphenyl)-4,5-dichloro-2-(2-fluoro-4-methoxy-phenoxy)benzamide], for which the IC50 was found to be 30 nM.

Consider `NC(=O)c1cccc(NC(=O)c2ccc(C(F)(F)C(F)(F)F)cc2Oc2ccc(F)cc2)c1` [Compound 249, N-(3-carbamoylphenyl)-2-(4-fluorophenoxy)-4-(1,1,2,2,2-pentafluoroethyl)benzamide], for which the half-inhibitory concentration (IC50) was determined as 60 nM.

`Cc1cc(F)ccc1Oc1ccc(C(F)(F)F)cc1C(=O)Nc1ccc(Cl)c(C(N)=O)c1` [Compound 293, N-(3-carbamoyl-4-chlorophenyl)-2-(4-fluoro-2-methylphenoxy)-5-(trifluoromethyl)benzamide]: the half-maximal inhibitory concentration (IC50) amounted to 33 nM.

In the case of `NC(=O)c1cccc(NC(=O)c2cc(C(F)(F)F)ccc2Oc2ccccc2OC(F)F)c1` [Compound 285, N-(3-carbamoylphenyl)-2-(2-(difluoromethoxy)phenoxy)-5-(trifluoromethyl)benzamide], the IC50 was 72 nM.

As to `Cc1cc(F)ccc1Oc1ccc(C(F)(F)F)cc1C(=O)Nc1cccc(C(N)=O)c1C` [Compound 291, N-(3-carbamoyl-2-methylphenyl)-2-(4-fluoro-2-methylphenoxy)-5-(trifluoromethyl)benzamide], the 50% inhibitory concentration (IC50) was determined as 1400 nM.

For the compound `COc1cc(F)ccc1Oc1ccc(C(F)(F)F)cc1C(=O)Nc1cccc(C(N)=O)c1` [Compound 288, N-(3-carbamoylphenyl)-2-(4-fluoro-2-methoxyphenoxy)-5-(trifluoromethyl)benzamide], the IC50 was determined as 34 nM.

With `COc1cc(Cl)ccc1Oc1cc(C(F)(F)F)ccc1C(=O)Nc1cccc(C(N)=O)c1` [Compound 302, N-(3-carbamoylphenyl)-2-[4-chloro-2-(methoxy)phenoxy]-4-(trifluoromethyl)benzamide], the half-maximal inhibitory concentration (IC50) was determined as 26 nM.

Take `COc1cc(F)ccc1Oc1cc(Cl)c(Cl)cc1C(=O)Nc1ccc(C(N)=O)cc1` [Compound 274, N-(4-carbamoylphenyl)-4,5-dichloro-2-(4-fluoro-2-methoxy-phenoxy)benzamide]: the 50% inhibitory concentration (IC50) amounted to 2 nM.
